Drawing on publication PMC7026418, “The kinase polypharmacology landscape of clinical PARP inhibitors” (Scientific Reports, 2020), this text covers percent of control binding for four compounds.

Read-outs that look alike come from different tables or passages of the source.

Targets include EGFR(T790M) (Homo sapiens, UniProt P00533, T790M); KIT (Homo sapiens, UniProt P10721); MAP4K5 (Homo sapiens, UniProt Q9Y4K4); TGFBR2 (Homo sapiens, UniProt P37173).
What all share (experiment): biochemical
Holding throughout (design): DiscoveRx KINOMEscan active site-directed competition binding; percent of control kinase bound to immobilised ligand

For the next experiment, the target named is T1, IKK-epsilon (Homo sapiens, UniProt Q14164).
T1 construct: gene IKBKE
T1 sequence (Q14164 1-716): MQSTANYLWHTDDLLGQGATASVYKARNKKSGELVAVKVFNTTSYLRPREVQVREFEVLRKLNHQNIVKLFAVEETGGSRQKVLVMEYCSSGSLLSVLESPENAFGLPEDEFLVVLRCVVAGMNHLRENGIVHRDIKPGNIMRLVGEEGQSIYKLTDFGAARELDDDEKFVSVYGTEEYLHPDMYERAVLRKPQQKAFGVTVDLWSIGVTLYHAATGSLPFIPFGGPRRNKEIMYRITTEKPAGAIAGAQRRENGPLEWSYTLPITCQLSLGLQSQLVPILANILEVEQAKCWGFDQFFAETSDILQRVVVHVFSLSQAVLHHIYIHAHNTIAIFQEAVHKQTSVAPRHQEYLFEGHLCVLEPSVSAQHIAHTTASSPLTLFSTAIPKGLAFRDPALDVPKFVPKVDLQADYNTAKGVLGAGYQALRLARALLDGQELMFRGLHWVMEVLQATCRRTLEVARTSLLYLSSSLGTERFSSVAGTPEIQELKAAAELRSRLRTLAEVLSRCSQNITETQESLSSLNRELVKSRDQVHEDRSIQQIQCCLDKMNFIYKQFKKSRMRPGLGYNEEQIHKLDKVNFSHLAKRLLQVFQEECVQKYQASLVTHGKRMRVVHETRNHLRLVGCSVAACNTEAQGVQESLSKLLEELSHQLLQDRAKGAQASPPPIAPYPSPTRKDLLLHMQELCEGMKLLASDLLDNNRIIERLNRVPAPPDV

For a further experiment, the target named is T2, PRKD3 (Homo sapiens, UniProt O94806).
T2 sequence (O94806 1-890): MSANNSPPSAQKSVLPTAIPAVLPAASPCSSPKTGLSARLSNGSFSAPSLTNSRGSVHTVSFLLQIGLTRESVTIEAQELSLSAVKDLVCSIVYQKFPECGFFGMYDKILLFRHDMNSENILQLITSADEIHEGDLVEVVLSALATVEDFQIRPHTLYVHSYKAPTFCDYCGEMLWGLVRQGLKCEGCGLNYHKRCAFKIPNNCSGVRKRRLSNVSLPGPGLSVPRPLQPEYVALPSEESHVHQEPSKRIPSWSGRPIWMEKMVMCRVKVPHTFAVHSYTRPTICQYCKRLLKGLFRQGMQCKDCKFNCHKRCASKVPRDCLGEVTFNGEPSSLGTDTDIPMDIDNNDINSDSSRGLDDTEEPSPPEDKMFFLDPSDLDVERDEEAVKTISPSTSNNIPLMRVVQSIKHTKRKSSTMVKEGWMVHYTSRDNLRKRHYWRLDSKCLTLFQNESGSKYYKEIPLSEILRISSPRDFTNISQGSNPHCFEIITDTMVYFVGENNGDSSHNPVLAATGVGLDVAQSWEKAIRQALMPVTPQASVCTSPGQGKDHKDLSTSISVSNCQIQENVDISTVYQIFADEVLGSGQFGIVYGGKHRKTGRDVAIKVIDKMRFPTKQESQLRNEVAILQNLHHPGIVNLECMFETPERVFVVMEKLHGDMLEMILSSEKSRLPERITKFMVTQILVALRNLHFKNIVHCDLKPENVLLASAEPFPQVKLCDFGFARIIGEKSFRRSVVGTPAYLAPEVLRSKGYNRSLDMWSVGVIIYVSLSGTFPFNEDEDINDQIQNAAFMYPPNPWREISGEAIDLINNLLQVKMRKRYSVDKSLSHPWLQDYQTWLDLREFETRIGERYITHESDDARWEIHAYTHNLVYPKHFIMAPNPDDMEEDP

The mark [1] stands for this setting: read-out: Niraparib (MK-4827) / %Ctrl @ 10000nM.
Setting [2] is: read-out: Talazoparib (BMN 673) / %Ctrl @ 10000nM.
Setting [3] is: read-out: Rucaparib / %Ctrl @ 10000nM, binding competition, % of control.
Setting [4] is: read-out: Olaparib / %Ctrl @ 10000nM.

Sequence of TGFBR2 (P37173 whole entry): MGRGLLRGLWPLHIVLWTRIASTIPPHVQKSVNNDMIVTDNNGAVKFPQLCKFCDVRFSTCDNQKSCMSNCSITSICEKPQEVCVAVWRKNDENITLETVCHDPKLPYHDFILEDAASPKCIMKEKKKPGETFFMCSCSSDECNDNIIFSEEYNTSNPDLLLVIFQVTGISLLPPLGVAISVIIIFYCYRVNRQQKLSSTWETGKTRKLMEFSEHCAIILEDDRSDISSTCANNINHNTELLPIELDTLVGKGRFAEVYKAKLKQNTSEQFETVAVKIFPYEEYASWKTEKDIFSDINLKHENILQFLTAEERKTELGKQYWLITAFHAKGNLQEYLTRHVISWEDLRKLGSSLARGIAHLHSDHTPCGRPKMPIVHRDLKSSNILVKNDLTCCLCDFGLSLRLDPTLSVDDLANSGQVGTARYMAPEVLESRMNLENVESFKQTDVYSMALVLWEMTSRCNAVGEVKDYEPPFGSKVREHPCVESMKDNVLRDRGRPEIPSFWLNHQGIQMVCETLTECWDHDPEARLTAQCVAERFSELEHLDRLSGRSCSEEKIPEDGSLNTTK
Sequence of EGFR(T790M) (P00533 whole entry T790M): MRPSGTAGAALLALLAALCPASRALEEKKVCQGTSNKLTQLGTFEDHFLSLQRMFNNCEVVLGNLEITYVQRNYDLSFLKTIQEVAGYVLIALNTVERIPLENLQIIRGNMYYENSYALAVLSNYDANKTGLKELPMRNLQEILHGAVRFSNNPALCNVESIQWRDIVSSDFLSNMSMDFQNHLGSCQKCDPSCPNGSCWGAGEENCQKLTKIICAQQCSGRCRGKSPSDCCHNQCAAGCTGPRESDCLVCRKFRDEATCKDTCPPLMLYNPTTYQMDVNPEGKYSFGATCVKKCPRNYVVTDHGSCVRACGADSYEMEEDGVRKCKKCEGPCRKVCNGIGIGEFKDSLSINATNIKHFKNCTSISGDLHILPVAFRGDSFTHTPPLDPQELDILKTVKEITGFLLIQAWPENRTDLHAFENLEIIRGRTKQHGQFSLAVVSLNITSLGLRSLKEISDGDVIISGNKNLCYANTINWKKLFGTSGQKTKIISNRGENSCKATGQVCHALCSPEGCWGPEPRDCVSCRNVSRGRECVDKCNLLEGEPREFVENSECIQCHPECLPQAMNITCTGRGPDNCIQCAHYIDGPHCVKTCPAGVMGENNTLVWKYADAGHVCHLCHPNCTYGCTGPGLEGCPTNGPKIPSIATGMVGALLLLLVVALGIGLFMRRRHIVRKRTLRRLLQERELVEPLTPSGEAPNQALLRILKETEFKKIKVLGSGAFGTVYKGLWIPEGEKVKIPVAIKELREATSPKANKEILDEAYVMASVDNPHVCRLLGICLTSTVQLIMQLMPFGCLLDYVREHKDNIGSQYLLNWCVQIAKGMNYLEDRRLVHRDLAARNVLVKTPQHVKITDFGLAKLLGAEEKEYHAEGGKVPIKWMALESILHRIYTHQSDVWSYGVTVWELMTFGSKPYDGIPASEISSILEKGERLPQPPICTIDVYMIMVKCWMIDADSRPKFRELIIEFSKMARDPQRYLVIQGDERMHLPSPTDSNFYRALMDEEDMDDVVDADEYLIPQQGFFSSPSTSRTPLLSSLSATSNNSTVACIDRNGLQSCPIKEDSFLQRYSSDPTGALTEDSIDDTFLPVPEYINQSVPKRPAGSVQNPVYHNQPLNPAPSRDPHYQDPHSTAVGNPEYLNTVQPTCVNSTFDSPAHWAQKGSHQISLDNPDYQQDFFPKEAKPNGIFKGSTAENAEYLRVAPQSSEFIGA
Sequence of MAP4K5 (Q9Y4K4 whole entry): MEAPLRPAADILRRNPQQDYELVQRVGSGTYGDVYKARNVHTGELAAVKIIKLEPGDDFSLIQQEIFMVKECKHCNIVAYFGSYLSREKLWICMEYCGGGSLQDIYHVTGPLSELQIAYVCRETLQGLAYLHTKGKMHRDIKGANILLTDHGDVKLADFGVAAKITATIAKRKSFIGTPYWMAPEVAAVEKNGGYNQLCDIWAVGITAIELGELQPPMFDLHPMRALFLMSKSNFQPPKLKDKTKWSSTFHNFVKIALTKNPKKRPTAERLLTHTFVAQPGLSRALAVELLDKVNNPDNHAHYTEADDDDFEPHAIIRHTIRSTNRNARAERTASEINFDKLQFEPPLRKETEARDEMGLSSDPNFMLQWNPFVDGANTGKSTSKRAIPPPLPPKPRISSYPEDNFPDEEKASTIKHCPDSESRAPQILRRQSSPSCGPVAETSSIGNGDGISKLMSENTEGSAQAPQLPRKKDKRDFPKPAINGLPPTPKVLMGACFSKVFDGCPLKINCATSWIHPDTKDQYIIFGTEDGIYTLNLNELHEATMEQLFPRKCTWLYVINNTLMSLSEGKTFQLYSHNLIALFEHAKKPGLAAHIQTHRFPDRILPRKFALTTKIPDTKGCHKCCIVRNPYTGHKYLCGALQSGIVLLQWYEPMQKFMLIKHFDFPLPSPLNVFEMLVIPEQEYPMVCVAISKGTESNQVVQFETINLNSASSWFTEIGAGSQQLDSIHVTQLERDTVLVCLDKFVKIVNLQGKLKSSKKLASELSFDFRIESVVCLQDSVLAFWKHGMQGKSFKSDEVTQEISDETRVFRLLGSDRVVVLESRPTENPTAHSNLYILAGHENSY
Sequence of KIT (P10721 whole entry): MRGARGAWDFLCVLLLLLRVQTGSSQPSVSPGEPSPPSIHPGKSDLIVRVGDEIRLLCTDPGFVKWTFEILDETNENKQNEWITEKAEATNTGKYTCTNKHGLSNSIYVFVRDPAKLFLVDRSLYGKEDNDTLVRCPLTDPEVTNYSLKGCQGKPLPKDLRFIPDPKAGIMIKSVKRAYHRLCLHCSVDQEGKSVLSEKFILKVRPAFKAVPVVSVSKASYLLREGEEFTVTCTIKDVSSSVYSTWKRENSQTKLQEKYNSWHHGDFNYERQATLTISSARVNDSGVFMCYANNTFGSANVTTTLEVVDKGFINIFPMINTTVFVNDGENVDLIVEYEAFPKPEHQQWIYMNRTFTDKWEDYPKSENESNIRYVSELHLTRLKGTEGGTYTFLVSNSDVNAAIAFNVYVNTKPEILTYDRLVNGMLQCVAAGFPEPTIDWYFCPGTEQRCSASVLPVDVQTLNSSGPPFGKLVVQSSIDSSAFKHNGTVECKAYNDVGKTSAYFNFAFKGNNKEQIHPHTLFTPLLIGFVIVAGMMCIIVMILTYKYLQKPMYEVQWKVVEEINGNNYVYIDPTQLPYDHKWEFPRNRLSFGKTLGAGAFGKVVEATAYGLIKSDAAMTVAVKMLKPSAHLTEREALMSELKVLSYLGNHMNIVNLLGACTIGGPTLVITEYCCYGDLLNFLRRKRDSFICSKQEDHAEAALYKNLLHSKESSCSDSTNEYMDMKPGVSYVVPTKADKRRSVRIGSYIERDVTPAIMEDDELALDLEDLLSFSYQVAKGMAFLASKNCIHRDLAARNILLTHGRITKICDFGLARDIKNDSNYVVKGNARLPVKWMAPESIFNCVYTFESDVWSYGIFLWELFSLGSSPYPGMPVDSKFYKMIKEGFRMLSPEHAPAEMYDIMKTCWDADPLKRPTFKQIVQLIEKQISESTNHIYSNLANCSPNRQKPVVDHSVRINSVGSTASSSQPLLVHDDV

For `NC(=O)c1cccc2cn(-c3ccc([C@@H]4CCCNC4)cc3)nc12` [Niraparib], the percent of control binding at 10 µM on EGFR(T790M) (setting [1]) is 93%; on IKK-epsilon (setting [1]), 76%; on KIT (setting [1]), 87%; on MAP4K5 (setting [1]), 100%; on PRKD3 (setting [1]) it was 76%; at TGFBR2 (setting [1]) it was 92%.

With `Cn1ncnc1[C@H]1c2n[nH]c(=O)c3cc(F)cc(c23)N[C@@H]1c1ccc(F)cc1` [Talazoparib], the percent of control binding at 10 µM on EGFR(T790M) (setting [2]) turned out to be 65%; on IKK-epsilon (setting [2]), 90%; on KIT (setting [2]), 100%; on MAP4K5 (setting [2]), 100%; at PRKD3 (setting [2]), 89%; on TGFBR2 (setting [2]), 98%.

In the case of `CNCc1ccc(-c2[nH]c3cc(F)cc4c3c2CCNC4=O)cc1` [Rucaparib], the percent of control binding at 10 µM at EGFR(T790M) (setting [3]) was 75%; at IKK-epsilon (setting [3]), 73%; on KIT (setting [3]), 100%; at MAP4K5 (setting [3]), 98%; on PRKD3 (setting [3]), 78%; at TGFBR2 (setting [3]), 96%.

For the compound `O=C(c1cc(Cc2n[nH]c(=O)c3ccccc23)ccc1F)N1CCN(C(=O)C2CC2)CC1` [Olaparib], the percent of control binding at 10 µM was determined as 84% at EGFR(T790M) (setting [4]); 70% at IKK-epsilon (setting [4]); 99% at KIT (setting [4]); 96% on MAP4K5 (setting [4]); 83% on PRKD3 (setting [4]); 89% at TGFBR2 (setting [4]).
